Paper PMC11261605, “Photocontrolled Reversible Amyloid Fibril Formation of Parathyroid Hormone-Derived Peptides” (Bioconjugate Chemistry, 2024)
In brackets after ≈: the same amount, converted by molar mass. *1 amine or outer side, *2 acyl side, *3 side chain or, on linkers, in order; H or OH if unused. Where a SMILES comes first, the peptide text is derived from it. Where no end group is shown, it is not given here. [ ]: non-standard residue; d: D form. X1 = O=C(c1cccc(N=Nc2ccc(CN[*:1])cc2)c1)[*:2]

Legend:
[1] = Maximal solubility in buffered solution; format: physicochemical; conditions: phosphate buffer, aqueous buffer; maximal solubility from solid (0.5 mg portions into 1 mL until precipitate); 50 mM aqueous Na2HPO4 pH 7.4; centrifuged 10 000 rpm 1 h 4 °C; supernatant by UV/vis absorbance
Method: UV/vis-absorbance spectroscopy was measured on a JASCO V-660 absorbance spectrometer in a 1 cm quartz glass cuvette. For PTH25–37, the absorbance was measured at 205 nm with a molar extinction coefficient of 49.310 cm^–1 M^–1; trans-azobenzene containing peptides were measured at 327 nm with a molar extinction coefficient of 13.000 cm^–1 M^–1. CD spectroscopy was measured with a JASCO J-1500 CD Spectrometer in either a 1 mm. As buffered solution, a 50 mM aqueous Na2HPO4 buffer solution was used with a pH value adjusted to 7.4. Transmission was measured with a Litesizer DLS 500 from Anton Paar using a 3 mm × 3 mm quartz glass cuvette. The irradiation wavelength was 658 nm. The equilibration time was 1 min, and the measurement time was 10 s. The temperature was maintained at 25 °C.
To determine the maximal solubility of a peptide, small amounts (0.5 mg) of the respective peptide were added to 1 mL of buffered solution and shacked for 10 s until an insoluble precipitate was visible. The suspensions were centrifuged at 10 000 rpm for 1 h at 4 °C, and the supernatant was transferred to another tube. The remaining monomer concentration was determined using UV/vis-absorbance spectroscopy. To determine the critical concentration ccr, two samples were prepared for each peptide according to the procedure for the ThT monitored fibrillization assay, one with ThT as a reference sample and the other one without ThT. Twenty hours after the reference sample reached the stationary phase, the fibril containing solutions from the sample without ThT were transferred to a tube and centrifuged at 10 000 rpm for 1 h at room temperature. The supernatant was transferred to another tube, and the concentration of the remaining monomers was determined using UV/vis-absorbance spectroscopy at 278 nm with a molar extinction coefficient of 3750 cm^–1 M^–1 for the azobenzene containing peptides and at 205 nm with a molar extinction coefficient of 49 310 cm^–1 M^–1 for PTH25–37.

3T3 cells = test: Resazurin reduction cell viability assay on 3T3 fibroblasts; format: cell-based, murine; conditions: trans-isomers, serial dilutions, 24 h or 96 h incubation, n = 8 per treatment, 3 independent experiments
Method: (§1) Cell viability was determined for trans-P4, trans-P8, and trans-P12 on NHDF as well as 3T3 fibroblasts with a resazurin reduction assay. Briefly, cells were seeded at desired cell densities in corresponding culture media supplemented with 10% FCS and penicillin/streptomycin in 96-well plates on day 0 and incubated overnight under standard cell culture conditions. On day 1, serial dilutions of the peptides in cell culture media were prepared. Then, medium (background and negative control–100% viability), TritonX in medium f.c. 0.025% (postive control–0% viability), and the peptide dilutions were added with one treatment per column (n = 8). Incubation for 24 h or 96 h under standard cell culture conditions followed. On day of measurement, resazurin stock solution was added to a final concentration of 44 μM into each well. After 2 h incubation, the resorufin fluorescence was measured with a Cytation 5 plate reader system. Means and standard deviation of each column were calculated. Experiments were repeated independently 3 times, and average values were evaluated (see Figure S12).
(§2) Figure S12: Cell viability assay of trans-P4, trans-P8, and trans-P12 on NHDF (human, adult, fibroblasts) and 3T3 (murine,
(§3) embryonal, fibroblasts) cells after 24 h (blue) and 96 h (orange). 100% cell viability corresponds to the value of the negative,
(§4) (1 picture or pasted object on this page, not shown here)

NHDF cells = test: Resazurin reduction cell viability assay on NHDF fibroblasts; format: cell-based, human; conditions: trans-isomers, serial dilutions, 24 h or 96 h incubation, n = 8 per treatment, 3 independent experiments
Method: as §1, §2, §3, §4

Row | solubility thermodynamic at 10 s [1] [µM] | Compound | toxicity toward 3T3 cells (3T3 cells) | toxicity toward NHDF cells (NHDF cells)
1 | 200 (≈ 361 µg/mL) | CC(C)C[C@H](NC(=O)[C@H](C)NC(=O)[C@@H](NC(=O)[C@H](Cc1ccccc1)NC(=O)[C@H](CC(N)=O)NC(=O)[C@H](Cc1c[nH]cn1)NC(=O)[C@@H](NC(=O)[C@H](CC(=O)O)NC(=O)[C@H](CCC(N)=O)NC(=O)[C@H](CC(C)C)NC(=O)[C@H](CCCCN)NC(=O)c1cccc(N=Nc2ccc(CNC(=O)[C@H](CCCCN)NC(=O)[C@@H](N)CCCNC(=N)N)cc2)c1)C(C)C)C(C)C)C(=O)O [P8] (H-RK[X1]KLQDVHNFVAL-OH) | did not observe any toxicity | did not observe any toxicity
2 | 130 (≈ 218 µg/mL) | CC(C)C[C@H](NC(=O)[C@H](C)NC(=O)[C@@H](NC(=O)[C@H](Cc1ccccc1)NC(=O)[C@H](CC(N)=O)NC(=O)[C@H](Cc1c[nH]cn1)NC(=O)[C@@H](NC(=O)[C@H](CC(=O)O)NC(=O)[C@H](CCC(N)=O)NC(=O)[C@H](CC(C)C)NC(=O)[C@H](CCCCN)NC(=O)c1cccc(N=Nc2ccc(CNC(=O)[C@@H](N)CCCNC(=N)N)cc2)c1)C(C)C)C(C)C)C(=O)O [P9] (H-R[X1]KLQDVHNFVAL-OH) | – | –
3 | 7 (≈ 12.6 µg/mL) | CC(C)C[C@H](NC(=O)[C@H](C)NC(=O)[C@@H](NC(=O)[C@H](Cc1ccccc1)NC(=O)c1cccc(N=Nc2ccc(CNC(=O)[C@H](CC(N)=O)NC(=O)[C@H](Cc3c[nH]cn3)NC(=O)[C@@H](NC(=O)[C@H](CC(=O)O)NC(=O)[C@H](CCC(N)=O)NC(=O)[C@H](CC(C)C)NC(=O)[C@H](CCCCN)NC(=O)[C@H](CCCCN)NC(=O)[C@@H](N)CCCNC(=N)N)C(C)C)cc2)c1)C(C)C)C(=O)O [P10] (H-RKKLQDVHN[X1]FVAL-OH) | – | –
4 | 20 (≈ 36.1 µg/mL) | CC(C)C[C@H](NC(=O)[C@H](C)NC(=O)c1cccc(N=Nc2ccc(CNC(=O)[C@@H](NC(=O)[C@H](Cc3ccccc3)NC(=O)[C@H](CC(N)=O)NC(=O)[C@H](Cc3c[nH]cn3)NC(=O)[C@@H](NC(=O)[C@H](CC(=O)O)NC(=O)[C@H](CCC(N)=O)NC(=O)[C@H](CC(C)C)NC(=O)[C@H](CCCCN)NC(=O)[C@H](CCCCN)NC(=O)[C@@H](N)CCCNC(=N)N)C(C)C)C(C)C)cc2)c1)C(=O)O [P11] (H-RKKLQDVHNFV[X1]AL-OH) | – | –
5 | 135 (≈ 230 µg/mL) | CC(C)C[C@H](NC(=O)[C@H](C)NC(=O)c1cccc(N=Nc2ccc(CNC(=O)[C@H](Cc3ccccc3)NC(=O)[C@H](CC(N)=O)NC(=O)[C@H](Cc3c[nH]cn3)NC(=O)[C@@H](NC(=O)[C@H](CC(=O)O)NC(=O)[C@H](CCC(N)=O)NC(=O)[C@H](CC(C)C)NC(=O)[C@H](CCCCN)NC(=O)[C@H](CCCCN)NC(=O)[C@@H](N)CCCNC(=N)N)C(C)C)cc2)c1)C(=O)O [P12] (H-RKKLQDVHNF[X1]AL-OH) | did not observe any toxicity | did not observe any toxicity
6 | > 500 | RKKLQDVHNFVAL [PTH25–37, reference compound] | – | –

Second part, the compound before the results:

Row | Compound | solubility thermodynamic at 10 s [1] [µM] | toxicity toward 3T3 cells (3T3 cells) | toxicity toward NHDF cells (NHDF cells)
7 | CC(C)C[C@H](NC(=O)[C@H](C)NC(=O)[C@@H](NC(=O)[C@H](Cc1ccccc1)NC(=O)[C@H](CC(N)=O)NC(=O)[C@H](Cc1c[nH]cn1)NC(=O)[C@@H](NC(=O)c1cccc(N=Nc2ccc(CNC(=O)[C@H](CC(=O)O)NC(=O)[C@H](CCC(N)=O)NC(=O)[C@H](CC(C)C)NC(=O)[C@H](CCCCN)NC(=O)[C@H](CCCCN)NC(=O)[C@@H](N)CCCNC(=N)N)cc2)c1)C(C)C)C(C)C)C(=O)O [P1] (H-RKKLQD[X1]VHNFVAL-OH) | 90 (≈ 162 µg/mL) | – | –
8 | CC(C)C[C@H](NC(=O)[C@H](C)NC(=O)[C@@H](NC(=O)[C@H](Cc1ccccc1)NC(=O)[C@H](CC(N)=O)NC(=O)[C@H](Cc1c[nH]cn1)NC(=O)c1cccc(N=Nc2ccc(CNC(=O)[C@@H](NC(=O)[C@H](CC(=O)O)NC(=O)[C@H](CCC(N)=O)NC(=O)[C@H](CC(C)C)NC(=O)[C@H](CCCCN)NC(=O)[C@H](CCCCN)NC(=O)[C@@H](N)CCCNC(=N)N)C(C)C)cc2)c1)C(C)C)C(=O)O [P2] (H-RKKLQDV[X1]HNFVAL-OH) | 60 (≈ 108 µg/mL) | – | –
9 | CC(C)C[C@H](NC(=O)[C@H](C)NC(=O)[C@@H](NC(=O)[C@H](Cc1ccccc1)NC(=O)[C@H](CC(N)=O)NC(=O)[C@H](Cc1c[nH]cn1)NC(=O)[C@@H](NC(=O)c1cccc(N=Nc2ccc(CNC(=O)[C@H](CCC(N)=O)NC(=O)[C@H](CC(C)C)NC(=O)[C@H](CCCCN)NC(=O)[C@H](CCCCN)NC(=O)[C@@H](N)CCCNC(=N)N)cc2)c1)C(C)C)C(C)C)C(=O)O [P3] (H-RKKLQ[X1]VHNFVAL-OH) | 35 (≈ 59.2 µg/mL) | – | –
10 | CC(C)C[C@H](NC(=O)[C@H](C)NC(=O)[C@@H](NC(=O)[C@H](Cc1ccccc1)NC(=O)[C@H](CC(N)=O)NC(=O)[C@H](Cc1c[nH]cn1)NC(=O)c1cccc(N=Nc2ccc(CNC(=O)[C@H](CC(=O)O)NC(=O)[C@H](CCC(N)=O)NC(=O)[C@H](CC(C)C)NC(=O)[C@H](CCCCN)NC(=O)[C@H](CCCCN)NC(=O)[C@@H](N)CCCNC(=N)N)cc2)c1)C(C)C)C(=O)O [P4] (H-RKKLQD[X1]HNFVAL-OH) | 370 (≈ 631 µg/mL) | did not observe any toxicity | did not observe any toxicity
11 | CC(C)C[C@H](NC(=O)[C@H](C)NC(=O)[C@@H](NC(=O)[C@H](Cc1ccccc1)NC(=O)[C@H](CC(N)=O)NC(=O)[C@H](Cc1c[nH]cn1)NC(=O)c1cccc(N=Nc2ccc(CNC(=O)[C@H](CCC(N)=O)NC(=O)[C@H](CC(C)C)NC(=O)[C@H](CCCCN)NC(=O)[C@H](CCCCN)NC(=O)[C@@H](N)CCCNC(=N)N)cc2)c1)C(C)C)C(=O)O [P5] (H-RKKLQ[X1]HNFVAL-OH) | 25 (≈ 39.8 µg/mL) | – | –
12 | CC(C)C[C@H](NC(=O)[C@H](C)NC(=O)[C@@H](NC(=O)[C@H](Cc1ccccc1)NC(=O)[C@H](CC(N)=O)NC(=O)[C@H](Cc1c[nH]cn1)NC(=O)[C@@H](NC(=O)[C@H](CC(=O)O)NC(=O)c1cccc(N=Nc2ccc(CNC(=O)[C@H](CCC(N)=O)NC(=O)[C@H](CC(C)C)NC(=O)[C@H](CCCCN)NC(=O)[C@H](CCCCN)NC(=O)[C@@H](N)CCCNC(=N)N)cc2)c1)C(C)C)C(C)C)C(=O)O [P6] (H-RKKLQ[X1]DVHNFVAL-OH) | 20 (≈ 36.1 µg/mL) | – | –
13 | CC(C)C[C@H](NC(=O)[C@H](C)NC(=O)[C@@H](NC(=O)[C@H](Cc1ccccc1)NC(=O)[C@H](CC(N)=O)NC(=O)[C@H](Cc1c[nH]cn1)NC(=O)[C@@H](NC(=O)[C@H](CC(=O)O)NC(=O)[C@H](CCC(N)=O)NC(=O)c1cccc(N=Nc2ccc(CNC(=O)[C@H](CC(C)C)NC(=O)[C@H](CCCCN)NC(=O)[C@H](CCCCN)NC(=O)[C@@H](N)CCCNC(=N)N)cc2)c1)C(C)C)C(C)C)C(=O)O [P7] (H-RKKL[X1]QDVHNFVAL-OH) | 140 (≈ 253 µg/mL) | – | –
